Laboratory results from the supplement of paper PMC10307832.

Experiments:
Assay in all cases: relative viability (nuclei count vs DMSO), 5 days (fraction); higher = more cells survive
Vandetanib + Dasatinib = compound: COc1cc2/c(=N/c3ccc(Br)cc3F)nc[nH]c2cc1OCC1CCN(C)CC1 [Vandetanib] + Cc1nc(Nc2ncc(C(=O)Nc3c(C)cccc3Cl)s2)cc(N2CCN(CCO)CC2)n1 [Dasatinib] (partner 0.075 µM)
How it was run: (§1)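 One day after seeding in 1536-well plates, lung cancer cell lines were dosed by pin tool. Dosing was either single-drug or a fixed anchor-drug dose plus five library-drug doses (not always all listed) in √10 steps. After 5 days, nuclei were stained in one fix-and-stain step and counted on 4× images, and relative viability is the nuclei count of treated wells over that of vehicle wells, given as the median of duplicate plates.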

[1] = compound: C1=CC=C2C(=C1)N=C(S2)C(C#N)C3=NC(=NC=C3)NCCC4=CN=CC=C4 + CS(=O)(=O)N1CCN(Cc2cc3nc(-c4cccc5[nH]ncc45)nc(N4CCOCC4)c3s2)CC1 [Pictilisib] (partner 1 µM)
How it was run: as §1

[2] = compound: C1=CC=C2C(=C1)N=C(S2)C(C#N)C3=NC(=NC=C3)NCCC4=CN=CC=C4 + C[C@@H](Oc1cc(-c2cnn(C3CCNCC3)c2)cnc1N)c1c(Cl)ccc(F)c1Cl [Crizotinib] (partner 1 µM)
How it was run: as §1

Vandetanib + Crizotinib = compound: COc1cc2/c(=N/c3ccc(Br)cc3F)nc[nH]c2cc1OCC1CCN(C)CC1 [Vandetanib] + C[C@@H](Oc1cc(-c2cnn(C3CCNCC3)c2)cnc1N)c1c(Cl)ccc(F)c1Cl [Crizotinib] (partner 1 µM)
How it was run: as §1

Cell Line	relative viability (Vandetanib + Dasatinib; first compound 0.02 µM)	relative viability (Vandetanib + Dasatinib; first compound 0.06325 µM)	relative viability (Vandetanib + Dasatinib; first compound 0.2 µM)	relative viability (Vandetanib + Dasatinib; first compound 0.6325 µM)	relative viability (Vandetanib + Dasatinib; first compound 2 µM)	relative viability ([1]; first compound 0.005 µM)	relative viability ([1]; first compound 0.01581 µM)	relative viability ([1]; first compound 0.05 µM)	relative viability ([1]; first compound 0.1581 µM)	relative viability ([1]; first compound 0.5 µM)	relative viability ([2]; first compound 0.005 µM)	relative viability ([2]; first compound 0.01581 µM)	relative viability ([2]; first compound 0.05 µM)	relative viability ([2]; first compound 0.1581 µM)	relative viability ([2]; first compound 0.5 µM)	relative viability (Vandetanib + Crizotinib; first compound 0.02 µM)	relative viability (Vandetanib + Crizotinib; first compound 0.06325 µM)	relative viability (Vandetanib + Crizotinib; first compound 0.2 µM)	relative viability (Vandetanib + Crizotinib; first compound 0.6325 µM)	relative viability (Vandetanib + Crizotinib; first compound 2 µM)
NCI-H522	0.849	0.724	0.885	0.808	0.821	–	–	–	–	–	–	–	–	–	–	–	–	–	–	–
RERF-LC-KJ	0.767	0.868	0.756	0.758	0.683	0.739	0.64	0.48	0.529	0.403	0.942	0.856	0.819	0.891	0.749	0.83	0.789	0.871	0.883	0.794
A-427	0.721	0.697	0.638	0.704	0.702	0.723	0.664	0.726	0.844	0.878	0.69	0.979	0.984	0.951	0.899	0.895	0.88	0.966	0.874	0.879
EKVX	0.547	0.566	0.498	0.602	0.374	0.497	0.422	0.45	0.479	0.457	0.775	1.03	0.986	0.895	0.573	1.01	0.882	1.13	1.02	0.531
NCI-H460	0.366	0.536	0.48	0.36	0.482	0.355	0.306	0.358	0.506	0.353	–	0.908	0.71	0.873	0.902	0.902	0.786	0.0179	0.972	0.804
HARA	0.305	0.264	0.239	0.237	0.303	0.324	0.349	0.368	0.611	0.298	0.928	1.11	0.957	1.22	0.978	1.04	1.02	1.01	0.998	0.956
NCI-H1944	0.208	0.218	0.205	0.195	0.215	0.369	0.33	0.355	0.362	0.319	1.15	1.18	1.02	1.12	1.1	1.01	1.1	1.15	1.07	0.942
BEN	0.309	0.331	0.271	0.286	0.288	0.59	0.509	0.584	0.576	0.561	0.668	0.924	0.82	0.785	0.806	0.809	0.807	0.89	0.862	0.785
PC-14	0.246	0.136	0.0576	0.0422	0.0429	–	0.785	0.778	0.498	0.533	0.856	0.961	0.929	0.972	0.744	0.94	0.853	0.897	0.386	0.231
NCI-H322M	0.23	0.25	0.24	0.223	0.252	0.482	0.477	0.492	0.552	0.486	0.845	0.85	0.953	0.891	0.796	0.899	0.952	0.937	0.88	0.897
NCI-H1651	0.313	0.461	0.431	0.394	0.386	0.364	0.585	0.68	0.815	0.565	0.746	0.883	0.855	0.864	0.849	0.837	0.851	0.831	0.898	0.781
LCLC-97TM1	0.801	0.848	0.807	0.865	0.786	0.215	0.179	0.156	0.181	0.236	0.28	0.394	0.368	0.326	0.256	0.32	0.342	0.232	0.459	0.441
NCI-H727	0.403	0.408	0.317	0.318	0.329	0.553	0.304	0.299	0.473	0.37	0.793	0.803	0.739	0.836	0.529	0.821	0.885	0.786	0.65	0.687
NCI-H1623	0.489	0.576	0.502	0.507	0.404	–	–	–	–	–	–	–	–	–	–	–	–	–	–	–
NCI-H1666	0.767	0.723	0.801	0.769	0.779	0.474	0.39	0.369	0.402	0.332	1.07	0.975	1.01	1	0.907	1.05	0.894	0.974	0.859	0.793
IA-LM	–	–	–	–	–	0.25	0.368	0.285	0.387	0.377	–	0.985	0.922	0.808	0.808	0.978	0.802	0.899	1.3	1.24
NCI-H1792	0.774	0.803	0.783	0.884	0.725	–	0.312	0.285	0.246	0.225	–	1.08	0.997	1.33	0.616	0.941	0.973	0.924	0.991	0.894
NCI-H1299	–	–	–	–	–	0.682	0.941	0.807	0.875	0.834	0.943	0.964	0.989	0.95	0.871	0.932	0.902	0.927	0.967	0.95
